The target of data set [1] is PI3K-p110δ (Homo sapiens, UniProt O00329). The data set is described as follows: Fold isoform selectivity from Ki determination, non-radiometric ADP-Glo assay (Proqinase). The data set is classed as biochemical. Conditions: class I PI3K isoforms. The text has this:
(§1) Fold isoform selectivity inhibition against class I PI3K isoforms, as confirmed following Ki determination using the non-radiometric ADP-Glo™ assay (Promega, Madison, Wis., USA) at Proqinase GmbH is listed below.
In general terms: ADP-Glo first removes unused ATP, then detects ADP through luciferase.

Data set [2] addresses PI3K-p110β (Homo sapiens, UniProt P42338). The data set is described as above. The data set is classed as biochemical. To be noted: class I PI3K isoforms.
Description: as §1

Data set [3] is described as follows: Rodent pharmacokinetics: oral bioavailability and clearance, plasma. To be noted: for clearance: male, CD1, mouse, iv. The data set is classed as in vivo, mouse. The method, then:
The following protocol was used to determine oral bioavailability and clearance.
The results are shown below. • Species=male mouse; • Strain=CD1, • n=3 male mice per time point per route; • Terminal blood sampling at 8 time points (5 min, 10 min, 0.5 hr, 1 hr, 3 hr, 6 hr, 8 hr and, 24 hr); • Collection of plasma, bio-analysis and report of pharmacokinetic parameters.
Formulation: 10% DMSO, 15% Cremophor, 75% Saline
Dosing: 10 mg/kg P.O. and 5 mg/kg I.V.
The results are shown below. • Species=male mouse; • Strain=CD1, • n=3 male mice per time point per route; • Terminal blood sampling at 8 time points (5 min, 10 min, 0.5 hr, 1 hr, 3 hr, 6 hr, 8 hr and, 24 hr); • Collection of plasma, bio-analysis and report of pharmacokinetic parameters. • Formulation: 10% DMSO, 90 & saline

[4] abbreviates: IV, 5 mg/kg, male CD1 mouse plasma, free base.
The mark [5] stands for this setting: PO, 10 mg/kg, male CD1 mouse plasma, free base.

Chain of PI3K-p110β (P42338 whole entry, canonical isoform): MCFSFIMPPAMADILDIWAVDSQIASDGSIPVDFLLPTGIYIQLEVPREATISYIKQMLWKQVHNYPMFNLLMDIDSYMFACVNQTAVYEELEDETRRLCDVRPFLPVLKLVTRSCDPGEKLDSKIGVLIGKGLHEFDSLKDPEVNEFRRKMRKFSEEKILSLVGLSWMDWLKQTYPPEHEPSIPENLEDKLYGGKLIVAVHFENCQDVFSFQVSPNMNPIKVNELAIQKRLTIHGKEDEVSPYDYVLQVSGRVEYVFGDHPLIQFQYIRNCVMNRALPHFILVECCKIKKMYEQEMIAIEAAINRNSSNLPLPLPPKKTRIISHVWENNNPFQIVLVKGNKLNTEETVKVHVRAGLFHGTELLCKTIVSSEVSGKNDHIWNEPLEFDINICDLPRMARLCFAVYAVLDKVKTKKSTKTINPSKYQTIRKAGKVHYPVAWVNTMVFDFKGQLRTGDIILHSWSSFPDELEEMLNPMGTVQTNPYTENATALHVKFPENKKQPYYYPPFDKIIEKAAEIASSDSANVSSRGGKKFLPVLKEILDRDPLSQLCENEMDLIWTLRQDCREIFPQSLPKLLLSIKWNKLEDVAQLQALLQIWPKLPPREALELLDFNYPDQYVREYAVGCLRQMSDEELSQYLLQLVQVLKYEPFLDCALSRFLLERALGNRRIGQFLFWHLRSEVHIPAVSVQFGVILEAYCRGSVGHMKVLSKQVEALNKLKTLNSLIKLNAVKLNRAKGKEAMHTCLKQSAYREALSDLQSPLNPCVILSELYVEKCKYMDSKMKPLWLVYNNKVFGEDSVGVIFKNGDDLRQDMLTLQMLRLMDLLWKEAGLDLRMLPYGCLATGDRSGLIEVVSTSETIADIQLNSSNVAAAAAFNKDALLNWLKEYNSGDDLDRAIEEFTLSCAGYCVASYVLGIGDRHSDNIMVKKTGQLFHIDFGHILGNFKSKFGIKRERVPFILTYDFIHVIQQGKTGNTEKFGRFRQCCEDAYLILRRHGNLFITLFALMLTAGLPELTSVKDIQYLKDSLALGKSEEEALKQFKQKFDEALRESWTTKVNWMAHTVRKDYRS
Chain of PI3K-p110β (P27986 whole entry partner, canonical isoform): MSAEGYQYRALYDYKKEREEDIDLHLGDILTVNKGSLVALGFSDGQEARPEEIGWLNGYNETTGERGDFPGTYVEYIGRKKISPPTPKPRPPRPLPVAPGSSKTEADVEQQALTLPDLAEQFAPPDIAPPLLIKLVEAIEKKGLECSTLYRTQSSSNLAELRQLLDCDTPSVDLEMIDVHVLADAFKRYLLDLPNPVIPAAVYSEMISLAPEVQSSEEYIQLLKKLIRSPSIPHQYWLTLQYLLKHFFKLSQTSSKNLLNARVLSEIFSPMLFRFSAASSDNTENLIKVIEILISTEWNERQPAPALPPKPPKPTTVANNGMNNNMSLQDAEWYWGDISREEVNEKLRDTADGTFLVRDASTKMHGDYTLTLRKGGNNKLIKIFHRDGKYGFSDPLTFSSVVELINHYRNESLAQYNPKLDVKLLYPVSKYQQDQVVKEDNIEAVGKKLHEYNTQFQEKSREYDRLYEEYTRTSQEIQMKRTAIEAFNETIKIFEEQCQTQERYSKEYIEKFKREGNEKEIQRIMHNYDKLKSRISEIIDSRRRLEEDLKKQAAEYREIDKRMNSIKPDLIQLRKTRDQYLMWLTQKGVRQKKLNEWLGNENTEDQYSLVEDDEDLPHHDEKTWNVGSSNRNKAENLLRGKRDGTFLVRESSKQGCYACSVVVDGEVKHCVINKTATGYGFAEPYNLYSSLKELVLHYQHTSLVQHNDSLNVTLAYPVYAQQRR
Chain of PI3K-p110δ (O00329 whole entry, canonical isoform): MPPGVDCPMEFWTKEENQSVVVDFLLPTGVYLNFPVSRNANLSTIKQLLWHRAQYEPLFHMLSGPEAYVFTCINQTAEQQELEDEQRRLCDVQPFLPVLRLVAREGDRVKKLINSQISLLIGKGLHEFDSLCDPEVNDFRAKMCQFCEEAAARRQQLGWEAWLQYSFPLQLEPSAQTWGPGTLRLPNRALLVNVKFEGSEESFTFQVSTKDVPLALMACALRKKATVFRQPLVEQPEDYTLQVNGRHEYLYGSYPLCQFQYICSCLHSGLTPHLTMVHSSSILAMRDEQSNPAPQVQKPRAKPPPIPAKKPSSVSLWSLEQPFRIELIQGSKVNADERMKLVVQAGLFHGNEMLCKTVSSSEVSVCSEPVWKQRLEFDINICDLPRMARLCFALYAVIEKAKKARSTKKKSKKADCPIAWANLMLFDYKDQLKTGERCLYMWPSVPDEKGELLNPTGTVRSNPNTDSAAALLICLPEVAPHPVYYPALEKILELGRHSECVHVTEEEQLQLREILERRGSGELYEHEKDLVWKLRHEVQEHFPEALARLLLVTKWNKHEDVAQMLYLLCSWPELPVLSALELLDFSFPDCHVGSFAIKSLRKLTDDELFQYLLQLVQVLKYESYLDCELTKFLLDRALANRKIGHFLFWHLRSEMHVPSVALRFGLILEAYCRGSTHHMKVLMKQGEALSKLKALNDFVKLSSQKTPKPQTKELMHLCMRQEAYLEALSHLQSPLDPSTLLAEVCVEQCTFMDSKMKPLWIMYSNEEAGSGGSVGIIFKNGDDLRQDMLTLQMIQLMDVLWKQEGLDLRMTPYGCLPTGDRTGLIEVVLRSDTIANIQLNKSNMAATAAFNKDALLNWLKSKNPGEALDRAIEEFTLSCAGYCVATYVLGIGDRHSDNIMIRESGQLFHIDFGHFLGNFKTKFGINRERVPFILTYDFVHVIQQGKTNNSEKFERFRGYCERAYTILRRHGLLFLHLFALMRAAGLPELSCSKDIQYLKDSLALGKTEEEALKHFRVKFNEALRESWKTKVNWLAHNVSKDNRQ
Chain of PI3K-p110δ (P27986 whole entry partner, canonical isoform): as the sequence (P27986 whole entry partner, canonical isoform) above

As to `COC1CN(Cc2cnc3oc4c(N5CCOCC5)nc(-c5cccc6[nH]c(C(F)(F)F)cc56)nc4c3c2)C1` [Example H, 12-[(3-Methoxyazetidin-1-yl)methyl]-6-(morpholin-4-yl)-4-[2-(trifluoromethyl)-1H-indol-4-yl]-8-oxa-3,5,10-triazatricyclo[7.4.0.0^2,7]trideca-1(13),2(7),3,5,9,11-hexaene], the “FOLD Ki p110δ/p110α” value in data set [1] was “* (* <10x)”. Also, the “FOLD Ki p110β/p110α” value in data set [2] is on record as “* (* <10x)”.
Turning to `COC1CN(Cc2cnc3oc4c(N5CCOCC5)nc(-c5cccc6[nH]cc(F)c56)nc4c3c2)C1` [Example Q], the “FOLD Ki p110δ/p110α” value in data set [1] was “** (** ≥10x < 50x)”. Moreover, the “FOLD Ki p110β/p110α” value in data set [2] is recorded as “** (** ≥10x < 50x)”.
For `Fc1ccc2[nH]ccc2c1-c1nc(N2CCOCC2)c2oc3ncc(N4CCOCC4)cc3c2n1` [Example O, 4-(5-Fluoro-1H-indol-4-yl)-6,12-bis(morpholin-4-yl)-8-oxa-3,5,10-triazatricyclo[7.4.0.0^2,7]trideca-1(9),2,4,6,10,12-hexaene], the “FOLD Ki p110δ/p110α” value in data set [1] is “* (* <10x)”. In addition, in data set [2], the “FOLD Ki p110β/p110α” value was “* (* <10x)”.
For `COC1CN(Cc2cnc3oc4c(N5CCOCC5)nc(-c5cc(F)cc6[nH]ccc56)nc4c3c2)C1` [Example I, 4-(6-Fluoro-1H-indol-4-yl)-12-[(3-methoxyazetidin-1-yl)methyl]-6-(morpholin-4-yl)-8-oxa-3,5,10-triazatricyclo[7.4.0.0^2,7]trideca-1(13),2(7),3,5,9,11-hexaene], the “FOLD Ki p110δ/p110α” value in data set [1] was “*** (*** ≥50x < 100x)”. Also, in data set [2], the “FOLD Ki p110β/p110α” value is on record as “*** (*** ≥50x < 100x)”.
As to `COC1CN(Cc2cnc3oc4c(N5CCOCC5)nc(-c5c(F)ccc6[nH]ccc56)nc4c3c2)C1` [Example E, 4-(5-Fluoro-1H-indol-4-yl)-12-[(3-methoxyazetidin-1-yl)methyl]-6-(morpholin-4-yl)-8-oxa-3,5,10-triazatricyclo[7.4.0.0^2,7]trideca-1(13),2(7),3,5,9,11-hexaene], in data set [1], the “FOLD Ki p110δ/p110α” value was “** (** ≥10x < 50x)”. Besides, the “FOLD Ki p110β/p110α” value in data set [2] is given as “** (** ≥10x < 50x)”. In addition, in data set [3] (setting [4]), the AUC (usually concentration integrated over time) was 2930 ng·h/mL; the AUC(0-inf) (as a rule, total exposure, with the tail of the curve extrapolated) was 3010 ng·h/mL; the AUClast worked out at 2930 ng·h/mL; the Cmax – broadly, the highest concentration seen after dosing – was 3620 ng/mL. For the same molecule, in data set [3] (setting [4]), the time of peak concentration (Tmax) (commonly the time from dosing to the highest level) came to 4.8 min and the Vd came to 1.29 L/kg. Moreover, the half-life (as a rule, how long it takes for the measured level to halve) in data set [3] (IV, 5 mg/kg, male CD1 mouse plasma, free base, 10% DMSO, 15% Cremophor, 75% Saline) was 33 min. In addition, in data set [3] (setting [5]), the area under the curve (AUC) stood at 2780 ng·h/mL, the AUC(0-inf) was determined as 2830 ng·h/mL, the exposure AUC(0-t) (commonly the area under the concentration-time curve up to a stated or last time point) worked out at 2780 ng·h/mL and the highest level (Cmax) was 1290 ng/mL. Further, in data set [3] (setting [5]), the Tmax is 30 min. Also, the half-life in data set [3] (PO, 10 mg/kg, male CD1 mouse plasma, free base, 10% DMSO, 15% Cremophor, 75% Saline) is 80.4 min. Besides, the clearance in data set [3] (plasma, 5 mg/kg, male CD1 mouse plasma, free base) worked out at 28 mL/min/kg. The bioavailability (usually the share of a dose that reaches the circulation, judged against a reference dose that is usually intravenous) in data set [3] (plasma, oral, 10 mg/kg P.O. and 5 mg/kg I.V., male CD1 mouse, free base, 10% DMSO, 15% Cremophor, 75% Saline, read-out: Oral bioavailability (F)) was 47%.
`COC1CN(Cc2cnc3oc4c(N5CCOCC5)nc(-c5ccc(F)c6[nH]ccc56)nc4c3c2)C1` [Example N, 4-(7-Fluoro-1H-indol-4-yl)-12-[(3-methoxyazetidin-1-yl)methyl]-6-(morpholin-4-yl)-8-oxa-3,5,10-triazatricyclo[7.4.0.0^2,7]trideca-1(13),2(7),3,5,9,11-hexaene]: the “FOLD Ki p110δ/p110α” value in data set [1] is “** (** ≥10x < 50x)”. For the same molecule, the “FOLD Ki p110β/p110α” value in data set [2] was “* (* <10x)”.
On the same counts, the results for `Fc1ccc2[nH]ccc2c1-c1nc(N2CCOCC2)c2oc3ncc(CN4CCC5(CC4)COC5)cc3c2n1` [Example D, 4-(5-Fluoro-1H-indol-4-yl)-6-(morpholin-4-yl)-12-{2-oxa-7-azaspiro[3.5]nonan-7-ylmethyl}-8-oxa-3,5,10-triazatricyclo[7.4.0.0^2,7]trideca-1(13),2(7),3,5,9,11-hexaene] are “*** (*** ≥50x < 100x)” and “*** (*** ≥50x < 100x)”.
On the same counts, the results for `COC1CN(Cc2cnc3sc4c(N5CCOCC5)nc(-c5c(F)ccc6[nH]ccc56)nc4c3c2)C1` [Example K, 4-(5-Fluoro-1H-indol-4-yl)-12-[(3-methoxyazetidin-1-yl)methyl]-6-(morpholin-4-yl)-8-thia-3,5,10-triazatricyclo[7.4.0.0^2,7]trideca-1(13),2(7),3,5,9,11-hexaene] are “* (* <10x)” and “* (* <10x)”.
On the same counts, the results for `COC1CN(Cc2cnc3oc4c(N5CCOCC5)nc(-c5cc(C(F)(F)F)cc6[nH]ccc56)nc4c3c2)C1` [Example L, 12-[(3-Methoxyazetidin-1-yl)methyl]-6-(morpholin-4-yl)-4-[6-(trifluoromethyl)-1H-indol-4-yl]-8-oxa-3,5,10-triazatricyclo[7.4.0.0^2,7]trideca-1(13),2(7),3,5,9,11-hexaene] are “* (* <10x)” and “* (* <10x)”.
Regarding `CCN1CCN(Cc2cnc3oc4c(N5CCOCC5)nc(-c5c(F)ccc6[nH]ccc56)nc4c3c2)CC1=O` [Example P], in data set [1], the “FOLD Ki p110δ/p110α” value is given as “** (** ≥10x < 50x)”. Further, the “FOLD Ki p110β/p110α” value in data set [2] is recorded as “* (* <10x)”.
Take `c1cc(-c2nc(N3CCOCC3)c3oc4ncc(CN5CCCCC5)cc4c3n2)c2cc[nH]c2c1` [Example I in WO 2011/021038, reference compound]: the clearance in data set [3] (plasma, 5 mg/kg, 5 mg/kg I.V., male CD1 mouse, mesylate salt, 10% DMSO, 90 & saline) worked out at 66 mL/min/kg.
As to `Fc1cc(-c2nc(N3CCOCC3)c3oc4ncc(CN5CCC6(CC5)COC6)cc4c3n2)c2cc[nH]c2c1` [Example B, 4-(6-Fluoro-1H-indol-4-yl)-6-(morpholin-4-yl)-12-{2-oxa-7-azaspiro[3.5]nonan-7-ylmethyl}-8-oxa-3,5,10-triazatricyclo[7.4.0.0^2,7]trideca-1(13),2(7),3,5,9,11-hexaene], the “FOLD Ki p110δ/p110α” value in data set [1] is listed as “*** (*** ≥50x < 100x)”. Also, the “FOLD Ki p110β/p110α” value in data set [2] was “** (** ≥10x < 50x)”.

The record behind these values is US10377764B2, “Tricyclic heterocyclic compounds as phosphoinositide 3-kinase inhibitors” (Karus Therapeutics Limited, priority 2015, dated 2019).
